Measurements as given in paper PMC6558205 (Frontiers in Pharmacology, 2019).

Tests used:
[1] = molecular target: T1, human long isoform of D2 receptor (D2LR) (Homo sapiens, UniProt P14416); assay: BRET assay of Gi activation, agonistic effect at the D2R canonical pathway, in HEK-293T cells; type: cell-based; details: BRET signal after 5 min stimulation, decrease = activation
T1 construct: expressed in transfected cells; host or cells: HEK293T
Procedure: HEK293T cells were cultured in Dulbecco’s modified eagle medium (DMEM) supplemented with 10% fetal bovine serum and 100 U/mL penicillin/streptomycin at 37°C in 5% CO2. Forty-eight hours before the experiments, cells were transfected in suspension, using polyethylenimine (PEI; 25 kDa linear; Polysciences, Warrington, PA, USA) at a ratio of 3:1 PEI/DNA, and directly seeded in 96-well white plates (OptiPlate; PerkinElmer) at a density of 4 × 10^4 cells/well and at 37°C in 5% CO2. When needed, total DNA amount was adjusted with salmon sperm DNA (Invitrogen, Carlsbad, CA, USA).

[2] = molecular target: T1, human long isoform of D2 receptor (D2LR); assay: BRET assay of inhibition of dopamine-induced Gi activation in HEK-293T cells; type: cell-based; details: 100 nM dopamine; for Ki: Ki (nM) (95% CI), apparent affinity, IC50 corrected by Cheng–Prusoff, HEK-293T; for I max for inhibition of the dopamine effect on Gi: text summary over 5 and 20 min
From the text: (§1) Then, for every compound, we calculate the ratios of their K i and I max values for the two pathways.

[3] = molecular target: T1, human long isoform of D2 receptor (D2LR); assay: ebBRET assay of inhibition of dopamine-induced β-arrestin-2 translocation in HEK-293T cells; type: cell-based; details: 10 µM dopamine; for Ki: Ki (nM) (95% CI), apparent affinity, IC50 corrected by Cheng–Prusoff, HEK-293T
From the text: as §1

[4] = molecular target: T1, human long isoform of D2 receptor (D2LR); assay: Estimation of functional selectivity between Gi and β-arr2 pathways (ratios of Ki, Imax, Imax/Ki); type: cell-based
From the text: as §1

[5] = Solubility limit seen in inhibition curves; type: physicochemical; details: complete inhibition curves not obtained in Gi antagonism assay

T1 sequence (P14416 whole entry, canonical isoform): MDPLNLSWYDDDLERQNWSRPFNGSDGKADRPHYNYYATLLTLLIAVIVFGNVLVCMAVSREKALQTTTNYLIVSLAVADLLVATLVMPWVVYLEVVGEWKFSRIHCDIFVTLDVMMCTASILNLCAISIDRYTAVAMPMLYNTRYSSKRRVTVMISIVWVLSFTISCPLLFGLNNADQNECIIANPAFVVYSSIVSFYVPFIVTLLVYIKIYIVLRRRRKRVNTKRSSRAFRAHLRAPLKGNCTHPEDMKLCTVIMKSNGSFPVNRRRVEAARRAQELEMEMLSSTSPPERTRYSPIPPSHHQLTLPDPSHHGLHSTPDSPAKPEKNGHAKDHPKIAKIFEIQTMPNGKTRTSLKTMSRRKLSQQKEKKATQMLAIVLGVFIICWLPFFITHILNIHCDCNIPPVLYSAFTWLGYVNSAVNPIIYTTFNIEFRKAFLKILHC

E max for Gi activation (change in BRET signal) [1] | I max (% dopamine effect) ± S.E.M., 5 min Gi ([2]; 5 min) | I max (% dopamine effect) ± S.E.M., 20 min Gi ([2]; 20 min) | Ki ([2]; 5 min Gi, 5 min) | Ki ([2]; 20 min Gi, 20 min) | I max for inhibition of the dopamine effect on Gi [2] | I max (% dopamine effect) ± S.E.M., 5 min β-arr ([3]; 5 min) | I max (% dopamine effect) ± S.E.M., 20 min β-arr ([3]; 20 min) | Ki ([3]; 5 min β-arr, 5 min) | Ki ([3]; 20 min β-arr, 20 min) | Imax (Gi)/Imax (β-arr) ([4]; 5 min) | Ki (Gi)/Ki (β-arr) ([4]; 5 min) | Imax (Gi)/Imax (β-arr) ([4]; 20 min) | Ki (Gi)/Ki (β-arr) ([4]; 20 min) | SMILES | Solubility [5]
−0.07 | 75.1 ± 16.3 % dopamine effect | 72.4 ± 9.8 % dopamine effect | 118 nM | 66.7 nM | 70–80% | 148 ± 20 % dopamine effect | 129 ± 12 % dopamine effect | 109 nM | 41.6 nM | 0.51 | 1.08 | 0.56 | 1.60 | Clc1ccc(-n2cc(CN3CCN(c4ccccc4)CC3)cn2)cc1 [LASSBio-579, 1-((1-(4-chlorophenyl)-1H-pyrazol-4-yl)methyl)-4-phenylpiperazine] | lack of solubility at higher concentrations
−0.04 | 78.9 ± 19.2 % dopamine effect | 71.6 ± 13.7 % dopamine effect | 263 nM | 190 nM | 70–80% | 71.3 ± 12.3 % dopamine effect | 94.2 ± 7.4 % dopamine effect | 353 nM | 209 nM | 1.11 | 0.74 | 0.76 | 0.91 | Oc1ccc(N2CCN(Cc3cnn(-c4ccc(Cl)cc4)c3)CC2)cc1 [LQFM 037] | lack of solubility at higher concentrations
